Measurements published in patent US20150299219A1, “BICYCLIC PYRAZOLONE COMPOUNDS AND METHODS OF USE” (Calitor Sciences, LLC, priority 2014, published 2015).

Columns and labels:
[1] = Compound stability in rat liver microsomes; format: in vitro ADME
Method: (§1) Human or rat liver microsomes incubations were conducted in duplicate in polypropylene tubes. The typical incubation mixtures consisted of human or rat liver microsomes (0.5 mg protein/mL), compounds of interest (5 μM) and NADPH (1.0 mM) in a total volume of 200 μL potassium phosphate buffer (PBS, 100 mM, pH 7.4). Compounds were dissolved in DMSO and diluted with PBS such that the final concentration of DMSO was 0.05%. The enzymatic reactions were commenced with the addition of protein after a 3-min preincubation and incubated in a water bath open to the air at 37° C. Reactions were terminated at various time points (0, 5, 10, 15, 30, 60 min) by adding equal volume of ice-cold acetonitrile. The samples were stored at −80° C. until LC/MS/MS assays.
(§2) The concentrations of compounds in the incubation mixtures of human or rat liver microsomes were determined by a LC/MS/MS method. The ranges of the linearity in the concentration range were determined for each tested compounds.
(§3) A parallel incubation was performed using denatured microsomes as the negative control, and reactions were terminated at various time points (0, 15, 60 min) after incubation at 37° C.
(§4) Dextromethorphan (70 μM) was selected as the positive control, and reactions were terminated at various time points (0, 5, 10, 15, 30, 60 min) after incubation at 37° C. Both positive and negative control samples were included in each assay to ensure the integrity of the microsomal incubation system.
(§5) Alternatively, the stability of some of the compounds disclosed herein in human (or rat) liver microsomes were also conducted in the following protocol. The incubations were conducted in duplicate in polypropylene tubes. The typical incubation mixtures consisted of liver microsomes (final concentration: 0.5 mg protein/mL), compounds (final concentration: 1.5 μM) in a total volume of 30 μL K-buffer (contain 1.0 mM EDTA, 100 mM, pH7.4). Compounds were dissolved in DMSO and diluted with K-buffer such that the final concentration of DMSO was 0.2%. The enzymatic reactions were commenced with the addition of 15 μL of NADPH (final concentration: 2 mM) after 10 min preincubation and incubated in a 37° C. incubator. Reactions were terminated at various time points (0, 15, 30, 60 min) by adding 135 μL acetonitrile (contain IS). Protein is removed by centrifugation with 4000 rpm, 10 min. Supernatant was collected for LCMS/MS analysis
(§6) In the above protocol, ketanserin (1 μM) was selected as the positive control, and reactions were terminated at various time points (0, 15, 30, 60 min) after incubation at 37° C. The positive control sample was included in each assay to ensure the integrity of the microsomal incubation system.
(§7) The concentrations of compounds in human or rat liver microsome incubations were plotted as a percentage of the relevant zero time point control for each reaction. The in vivo CLint were extrapolated (ref: Naritomi, Y.; Terashita, S.; Kimura, S.; Suzuki, A.; Kagayama, A.; and Sugiyama, Y.; Prediction of human hepatic clearance from in vivo animal experiments and in vitro metabolic studies with liver microsomes from animals and humans. Drug Metab. Dispos., 2001, 29: 1316-1324).

[2] = Pharmacokinetic profiles in rats; format: in vivo; details: rat, plasma
Method: The LC/MS/MS system used in the analysis consists of an Agilent 1200 Series vacuum degasser, binary pump, well-plate autosampler, thermostatted column compartment, the Agilent G6430 Triple Quadrupole Mass Spectrometer with an electrosprayionization (ESI) source. Quantitative analysis was carried out using MRM mode. The parameters for MRM transitions are in the Table A.
An Agilent XDB-C18, 2.1×30 mm, 3.5 μM column was used for the analysis. 5 μL of the samples were injected. Analysis condition: The mobile phase was 0.1% formic acid in water (A) and 0.1% formic acid in methanol (B). The flow rate was 0.4 mL/min. And the gradient of Mobile phase was in the Table B.
Alternatively, an Agilent 6330 series LC/MS/MS spectrometer equipped with G1312A binary pumps, a G1367A autosampler and a G1314C UV detector were used in the analysis. An ESI source was used on the LC/MS/MS spectrometer. The analysis was done in positive ion mode as appropriate and the MRM transition for each analyte was optimized using standard solution. A Capcell MP-C18 100×4.6 mm I.D., […] column (Phenomenex, Torrance, Calif., USA) was used during the analysis. The mobile phase was 5 mM ammonia acetate, 0.1% MeOH in water (A): 5 mM ammonia acetate, 0.1% MeOH in acetonitrile (B) (70/30, v/v). The flow rate was 0.6 mL/min. Column was maintained at ambient temperature. 20 μL of the samples were injected.
The compounds disclosed herein are assessed in pharmacokinetic studies in mice, rats, dogs or monkeys. The compounds are administered as a water solution, 2% HPMC+1% TWEEN®80 in water solution, 5% DMSO+5% solutol in saline, 4% MC suspension or capsule. For the intravenous administration, the animals are generally given at 1 or 2 mg/kg dose. For the oral (p.o.) dosing, mice and rats are generally given 5 or 10 mg/kg dose, and dogs and monkeys are generally given 10 mg/kg dose. The blood samples (0.3 mL) are drawn at 0.25, 0.5, 1.0, 2.0, 3.0, 4.0, 6.0, 8.0, 12 and 24 h time points or 0.083, 0.25, 0.5, 1.0, 2.0, 4.0, 6.0, 8.0 and 24 h time points and centrifuged at 3,000 or 4000 rpm for 2 to 10 min. The plasma solutions are collected, and stored at −20° C. or −70° C. until analyzed by LC/MS/MS as described above.

[3] = Compound stability in human liver microsomes; format: in vitro ADME
Method: as §1, §2, §3, §4, §5, §6, §7

[4] = pH 7.4, 0.5 mg protein/mL, NADPH, 37° C.
[5] = pH 7.4, in vivo CLint extrapolated

half-life [1, 4]: 1.48 h
CLint scaled [1, 5]: 27.9 mL/min/kg
AUC(0-t) ([2]; iv dosing, 1 mg/kg): 1190 ng·h/mL
half-life ([2]; iv dosing, 1 mg/kg): 1.51 h
Vd ([2]; iv dosing, 1 mg/kg, read-out: Vss): 1.2 L/kg
bioavailability ([2]; po, bioavailability (F)): 163%
half-life [3, 4]: 3.13 h
CLint scaled [3, 5]: 9.27 mL/min/kg
SMILES: Nc1cc(Oc2ccc(NC(=O)c3c4n(n(-c5ccccc5)c3=O)CCC4)cc2)ccn1 [Ex. 1, N-(4-((2-aminopyridin-4-yl)oxy)phenyl)-2-oxo-1-phenyl-2,4,5,6-tetrahydro-1H-pyrrolo[1,2-b]pyrazole-3-carboxamide]
